The record followed here is patent publication US12157736B2, “Spiro-lactam NMDA modulators and methods of using same” (Tenacia Biotechnology (Hong Kong) Co., Limited, priority 2016, dated 2024).

One data set deals with T1, NMDAR2A (Homo sapiens, UniProt Q12879).
T1 construct: expressed in transfected cells; host or cells: HEK cells (membrane extract)
As to the kind of experiment: NMDAR agonist assay, [3H]MK-801 binding, NMDAR2A expressing HEK cell membranes. In kind it is biochemical. The settings on record: 50 μM glutamate, read-out: NMDAR2A: log EC50 (converted). The protocol:
(§1) Assays were conducted as described by Moskal et al., “GLYX-13: a monoclonal antibody-derived peptide that acts as an N-methyl-D-aspartate receptor modulator,” Neuropharmacology, 49, 1077-87, 2005. These studies were designed to determine if the test compounds act to facilitate NMDAR activation in NMDAR2A, NMDAR2B, NMDAR2C or NMDAR2D expressing HEK cell membranes as measured by increases in [^3H]MK-801 binding.
(§2) In the assay, 300 μg of NMDAR expressing HEK cell membrane extract protein was preincubated for 15 minutes at 25° C. in the presence of saturating concentrations of glutamate (50 μM) and varying concentrations of test compound (1×10^−15M−1×10^−7M), or 1 mM glycine. Following the addition of […] of [^3H]MK-801 (22.5 Ci/mmol), reactions were again incubated for 15 minutes at 25° C. (nonequilibrium conditions). Bound and free [^3H]MK-801 were separated via rapid filtration using a Brandel apparatus.
(§3) In analyzing the data, the DPM (disintegrations per minute) of [^3H]MK-801 remaining on the filter were measured for each concentration of test compound or for 1 mM glycine. The DPM values for each concentration of a ligand (N=2) were averaged. The baseline value was determined from the best fit curve of the DPM values modeled using the GraphPad program and the log(agonist) vs. response (three parameters) algorithm was then subtracted from all points in the dataset. The % maximal [3H]MK-801 binding was then calculated relative to that of 1 mM glycine: all baseline subtracted DPM values were divided by the average value for 1 mM glycine. The EC50 and % maximal activity were then obtained from the best fit curve of the % maximal [3H]MK-801 binding data modelled using the GraphPad program and the log(agonist) vs. response (three parameters) algorithm.
(§4) The tables below summarize the results for the wild type […] NMDAR2A, NMDAR2B, NMDAR2C, and NMDAR2D, and whether the compound is not an agonist (−), is an agonist (+), or is a strong agonist (++), where column A is based on the % maximal [3H]MK-801 binding relative to 1 mM glycine (−=0; <100%=+; and >100%=++); and column B is based on log EC50 values (0=−; ≥1×10^−9 M (e.g., −8)=+; and <1×10^−9 M (e.g., −10)=++).

The target of a further data set is T2, NMDAR2C (Homo sapiens, UniProt Q14957).
T2 construct: expressed in transfected cells; host or cells: HEK cells (membrane extract)
The data set can be described thus: NMDAR agonist assay, [3H]MK-801 binding, NMDAR2C expressing HEK cell membranes. The data set is classed as biochemical. The settings on record: 50 μM glutamate; for EC50: read-out: NMDAR2C: log EC50 (converted). As to the method: as §1, §2, §3, §4

Another data set concerns the target T3, NMDAR2D (Homo sapiens, UniProt O15399).
T3 construct: expressed in transfected cells; host or cells: HEK cells (membrane extract)
As to the kind of experiment: NMDAR agonist assay, [3H]MK-801 binding, NMDAR2D expressing HEK cell membranes. The data set is classed as biochemical. The settings on record: 50 μM glutamate. As to the method:
as §1, §2
as §3, with “algorithm. […]” for “algorithm.”

The next data set in a line: IV pharmacokinetics. The settings on record: rat, 2 mg/kg, normal saline. In kind it is in vivo, Sprague Dawley rats. The protocol:
Sprague Dawley rats were dosed intravenously using a normal saline formulation containing 2 mg/kg of the compounds identified in the below table. The table below summarizes the results of the IV pharmacokinetics.

Data set [1] relates to rats. The data set can be described thus: Porsolt forced swim test. The settings on record: 0.1 mg/kg, Yes = statistically significant (p<=0.05) from vehicle. The data set is classed as in vivo, Sprague Dawley rats. The protocol:
A non-clinical in vivo pharmacology study (Porsolt assay) was performed to measure antidepressant-like effects. A negative control (0.5% sodium carboxymethyl cellulose in 0.9% sterile saline vehicle) and a positive control (fluoxetine) are shown for comparison against test compound. The study allowed for the evaluation of the effects of each compound on the Porsolt forced swim test as assessed by the rats' response (reduced floating time) during a 5-minute swimming test.
Male 2-3 month old Sprague Dawley rats were used (Harlan, Indianapolis, IN). Rats were housed in Lucite cages with aspen wood chip bedding, maintained on a 12:12 light:dark cycle (lights on at 5 AM), and given ad libitum access to Purina lab chow (USA) and tap water throughout the study.
The Porsolt forced swim test adapted for use in rats was performed as described by Burgdorf et al., (The long-lasting antidepressant effects of rapastinel (GLYX-13) are associated with a metaplasticity process in the medial prefrontal cortex and hippocampus. Neuroscience 308:202-211, 2015). Animals were placed in a 46 cm tall×20 cm in diameter clear glass tube filled to 30 cm with tap water (23±1° C.) for 15 min on the first day (habituation) and 5 min on the subsequent test day. Positive control fluoxetine was dosed 3 times (24 h, 5 h and 1 h) prior to testing. Animals were tested 1 h or 24 h post-dosing with the test compounds or vehicle. Animals received a 15 min habituation session 1 day before the 5 min test. Water was changed after every other animal. Animals were videotaped, and floating time as defined as the minimal amount of effort required to keep the animals head above water was scored offline by a blinded experimenter with high inter-rater reliability (Pearson's r>0.9).
Each compound tested at dose level shown. Significance vs. vehicle group for each experiment is marked. […] A compound marked “No” was not statistically significant from vehicle. Data was averaged for test compound and vehicle groups (N approximately 8 per group) and the percent reduction in floating for group treated with test compound relative to group treated with vehicle is shown.

The test system of data set [2] is rats. As to the kind of experiment: Bennett model of mechanical analgesia (sciatic nerve chronic constriction injury). The settings on record: 150 mg/kg PO. The data set is classed as in vivo, Sprague Dawley rats. The protocol:
The Bennett model of mechanical analgesia is used to assess the analgesic effects of compounds as measured by paw withdrawal threshold. Bennett G J, Xie Y K, “A peripheral mononeuropathy in rat that produces disorders of pain sensation like those seen in man,” Pain 33:87-107, 1988. […] Vehicle animals receive the surgery and then receive vehicle rather than test compound. Animals were tested 1 hr, 24 h and 1 wk post-test compound or vehicle administration.
Male 2-3 month old Sprague Dawley rats were used. Harlan was the supplier for all studies. Rats were housed in Lucite cages with aspen wood chip bedding, maintained on a 12:12 light:dark cycle (lights on at 5 AM), and given ad libitum access to Purina lab chow (USA) and tap water throughout the study.
Rats were anesthetized using inhaled isoflurane (2.5%). Sciatic nerve chronic constriction nerve injury surgery was performed as previously described (Bennett and Xie, 1988). An incision (˜1.5 cm in length) was made with a scalpel blade dorsally through skin on the right hind limb, parallel and posterior to femur. Using a small pointed hemostat, the biceps femoris and gluteus superficialis muscles were separated. Using curved blunt forceps, the common sciatic nerve was isolated and exposed. For the mechanical analgesia studies, the whole sciatic nerve was ligated. Using hemostats/forceps and chromic gut (5-0), the nerve was loosely ligated with a square knot; 3 ligatures, 1 mm apart were placed on the nerve. […] Testing occurred approximately 2 weeks post-surgery.
During testing, rats were acclimated to the surface of a suspended wire mesh grid (1 cm×1 cm, with the wire being 0.3 cm in diameter) for 15-20 min. Starting from the smallest, each Von Frey filament was pressed perpendicularly to the plantar surface of the affected (ipsilateral) hind paw until slightly bent and then held for 6 second. If an obvious hind paw withdrawal or a flinching behavior immediately after the withdrawal of the filament was not observed, the next larger filament was used in the same manner. In case of a response, a lower filament was used. This was repeated until six responses were collected.
For all studies, animals were baselined prior to study start to test for allodynia (defined as a paw withdrawal threshold under 5). A subset of animals was tested with gabapentin (150 mg/kg, PO) to ensure at least 50% analgesia. Once it was confirmed animals were ready for study initiation, animals were balanced across groups. All study investigators were blind to treatment conditions. Animals were dosed with 0.1, 1, 10, or 30 mg/kg of test compound via oral gavage (PO), control sets of animals were dosed with gabapentin (150 mg/kg, PO) or vehicle (0.5% Na-CMC in 0.9% sterile saline, PO). Testing occurred 1 h post-dosing with animals retested 24 hrs and 1 week post-dosing. The percent analgesia calculations for each animal were made using the following equation: % analgesia=[(log(x)−y)/((log(z)−y)]*100, where x=the paw withdrawal threshold for the drug-treated animal in grams, y=the average of the log(x) values for the vehicle treated group, and z=the paw withdrawal threshold for naïve animals in grams (historical value of 15 used). The results for Compound AA-2, where the percentage of analgesia is measured at 1 hour, 24 hours, and 1 week after compound administration are as follows: for 0.1 mg/kg dose: 22.3% at 1 h, 1.6% at 24 h, and 2.3% at 1 wk; for 1 mg/kg dose: 19.2% at 1 h, 10.7% at 24 h, and 11.0% at 1 wk; for 10 mg/kg dose: 38.1% at 1 h, 24.3% at 24 h, and 41.4% at 1 wk; and for 30 mg/kg dose: 24.4% at 1 h, 8.7% at 24 h, and 34.5% at 1 wk.

T1 sequence (Q12879 23-1464, species assumed, other chains not shown): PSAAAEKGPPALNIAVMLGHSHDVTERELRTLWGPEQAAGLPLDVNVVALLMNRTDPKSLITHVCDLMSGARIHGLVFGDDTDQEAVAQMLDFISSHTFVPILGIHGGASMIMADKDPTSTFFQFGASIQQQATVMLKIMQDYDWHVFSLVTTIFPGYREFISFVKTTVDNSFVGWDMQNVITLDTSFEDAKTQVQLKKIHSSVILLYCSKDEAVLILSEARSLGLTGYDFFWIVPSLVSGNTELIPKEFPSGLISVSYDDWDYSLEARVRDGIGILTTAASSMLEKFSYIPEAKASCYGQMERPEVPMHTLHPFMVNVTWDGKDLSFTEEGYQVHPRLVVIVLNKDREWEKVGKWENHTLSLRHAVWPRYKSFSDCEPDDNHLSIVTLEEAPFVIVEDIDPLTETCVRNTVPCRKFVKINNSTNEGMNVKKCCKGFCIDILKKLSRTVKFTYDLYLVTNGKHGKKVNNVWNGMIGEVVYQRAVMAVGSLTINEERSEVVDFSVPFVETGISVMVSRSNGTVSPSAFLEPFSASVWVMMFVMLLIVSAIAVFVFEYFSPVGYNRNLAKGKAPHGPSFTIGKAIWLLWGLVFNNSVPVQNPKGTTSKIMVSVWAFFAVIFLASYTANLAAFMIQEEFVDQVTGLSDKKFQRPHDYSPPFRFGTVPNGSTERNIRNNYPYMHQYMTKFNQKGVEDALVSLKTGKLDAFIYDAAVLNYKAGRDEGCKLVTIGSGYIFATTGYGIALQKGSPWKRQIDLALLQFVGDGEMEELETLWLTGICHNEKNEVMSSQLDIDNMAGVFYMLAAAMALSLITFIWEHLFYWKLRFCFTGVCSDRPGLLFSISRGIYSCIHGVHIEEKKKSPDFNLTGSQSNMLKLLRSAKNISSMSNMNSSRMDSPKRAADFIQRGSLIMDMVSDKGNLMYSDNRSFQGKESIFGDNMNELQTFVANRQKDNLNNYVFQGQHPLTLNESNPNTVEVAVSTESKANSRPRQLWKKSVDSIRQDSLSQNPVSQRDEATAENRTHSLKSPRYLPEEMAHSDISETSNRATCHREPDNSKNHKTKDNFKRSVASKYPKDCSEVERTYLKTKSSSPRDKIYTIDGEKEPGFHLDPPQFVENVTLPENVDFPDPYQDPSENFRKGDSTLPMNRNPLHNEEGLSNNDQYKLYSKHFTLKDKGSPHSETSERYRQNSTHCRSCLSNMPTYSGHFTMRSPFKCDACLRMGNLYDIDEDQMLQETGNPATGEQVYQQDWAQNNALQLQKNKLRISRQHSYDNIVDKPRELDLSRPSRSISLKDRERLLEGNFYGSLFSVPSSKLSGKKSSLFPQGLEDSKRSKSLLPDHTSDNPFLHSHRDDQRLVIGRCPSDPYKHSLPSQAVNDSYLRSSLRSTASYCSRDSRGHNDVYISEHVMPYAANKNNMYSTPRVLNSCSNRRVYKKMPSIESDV
T2 sequence (Q14957 20-1233, species assumed, other chains not shown): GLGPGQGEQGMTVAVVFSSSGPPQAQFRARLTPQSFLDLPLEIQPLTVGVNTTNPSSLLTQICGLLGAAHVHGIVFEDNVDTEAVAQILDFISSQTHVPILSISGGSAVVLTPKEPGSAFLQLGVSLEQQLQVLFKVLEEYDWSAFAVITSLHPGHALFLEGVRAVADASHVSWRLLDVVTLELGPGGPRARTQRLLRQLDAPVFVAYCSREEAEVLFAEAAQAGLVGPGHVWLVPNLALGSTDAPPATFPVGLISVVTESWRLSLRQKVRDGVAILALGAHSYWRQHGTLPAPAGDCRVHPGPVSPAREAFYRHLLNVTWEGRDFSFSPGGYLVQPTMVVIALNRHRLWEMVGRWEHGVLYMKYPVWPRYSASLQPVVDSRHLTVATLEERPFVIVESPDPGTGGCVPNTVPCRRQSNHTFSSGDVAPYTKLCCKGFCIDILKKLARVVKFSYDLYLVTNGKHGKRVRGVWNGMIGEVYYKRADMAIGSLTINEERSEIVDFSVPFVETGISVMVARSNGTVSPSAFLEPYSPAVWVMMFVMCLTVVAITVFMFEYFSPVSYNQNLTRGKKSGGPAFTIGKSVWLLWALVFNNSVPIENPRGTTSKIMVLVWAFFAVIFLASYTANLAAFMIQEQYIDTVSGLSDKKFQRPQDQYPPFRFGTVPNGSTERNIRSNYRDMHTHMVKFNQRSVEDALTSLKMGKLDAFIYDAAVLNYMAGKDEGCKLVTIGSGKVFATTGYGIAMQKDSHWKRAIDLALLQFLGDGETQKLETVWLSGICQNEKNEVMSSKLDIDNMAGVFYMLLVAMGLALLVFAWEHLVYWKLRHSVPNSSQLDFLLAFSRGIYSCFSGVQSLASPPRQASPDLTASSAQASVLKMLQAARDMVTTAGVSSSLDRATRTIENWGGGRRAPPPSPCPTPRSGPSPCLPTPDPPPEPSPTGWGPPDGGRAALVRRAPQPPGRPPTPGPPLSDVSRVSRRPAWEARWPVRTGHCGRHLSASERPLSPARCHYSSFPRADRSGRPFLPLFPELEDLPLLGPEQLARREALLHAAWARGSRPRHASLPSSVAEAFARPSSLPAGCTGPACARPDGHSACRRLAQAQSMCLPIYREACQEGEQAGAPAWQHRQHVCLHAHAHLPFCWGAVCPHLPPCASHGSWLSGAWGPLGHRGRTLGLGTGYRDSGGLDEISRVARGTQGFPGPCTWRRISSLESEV
T3 sequence (O15399 28-1336, species assumed, other chains not shown): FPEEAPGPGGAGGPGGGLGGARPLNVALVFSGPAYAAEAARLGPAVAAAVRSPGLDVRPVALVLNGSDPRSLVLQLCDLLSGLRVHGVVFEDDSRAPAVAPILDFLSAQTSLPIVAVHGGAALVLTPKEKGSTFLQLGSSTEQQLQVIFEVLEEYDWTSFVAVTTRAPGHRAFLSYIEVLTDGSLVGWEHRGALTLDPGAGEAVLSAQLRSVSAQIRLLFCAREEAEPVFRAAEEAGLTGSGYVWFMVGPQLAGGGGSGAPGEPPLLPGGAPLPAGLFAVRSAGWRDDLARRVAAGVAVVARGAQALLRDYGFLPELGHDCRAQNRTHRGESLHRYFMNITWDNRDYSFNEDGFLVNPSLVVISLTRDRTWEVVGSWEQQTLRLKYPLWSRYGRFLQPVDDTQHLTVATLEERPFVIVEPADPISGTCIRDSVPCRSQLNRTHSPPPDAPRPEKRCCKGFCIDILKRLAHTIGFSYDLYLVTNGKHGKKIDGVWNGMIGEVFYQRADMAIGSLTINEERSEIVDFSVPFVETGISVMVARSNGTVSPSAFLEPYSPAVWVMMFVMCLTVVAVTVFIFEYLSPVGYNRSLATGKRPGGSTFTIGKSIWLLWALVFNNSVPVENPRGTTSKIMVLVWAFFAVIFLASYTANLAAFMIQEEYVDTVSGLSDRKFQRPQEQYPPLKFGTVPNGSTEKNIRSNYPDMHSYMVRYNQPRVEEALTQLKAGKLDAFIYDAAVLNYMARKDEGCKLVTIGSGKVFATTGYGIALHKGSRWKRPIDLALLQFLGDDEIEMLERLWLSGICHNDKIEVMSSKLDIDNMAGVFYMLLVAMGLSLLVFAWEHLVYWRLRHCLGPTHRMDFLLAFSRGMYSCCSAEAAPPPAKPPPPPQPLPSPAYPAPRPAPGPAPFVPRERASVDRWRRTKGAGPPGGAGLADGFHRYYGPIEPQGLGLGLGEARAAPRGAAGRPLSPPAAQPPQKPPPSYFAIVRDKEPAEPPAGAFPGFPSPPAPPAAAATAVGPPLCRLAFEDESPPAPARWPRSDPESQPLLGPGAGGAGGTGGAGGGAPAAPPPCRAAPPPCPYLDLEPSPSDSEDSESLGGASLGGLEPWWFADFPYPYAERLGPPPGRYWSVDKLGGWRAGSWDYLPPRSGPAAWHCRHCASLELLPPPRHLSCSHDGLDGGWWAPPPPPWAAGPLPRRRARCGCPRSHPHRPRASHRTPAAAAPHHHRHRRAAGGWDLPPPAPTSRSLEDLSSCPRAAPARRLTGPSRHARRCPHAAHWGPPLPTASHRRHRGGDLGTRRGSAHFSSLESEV

Broadly, the EC50 is the concentration that produces a half-maximal response. Regarding `COc1ccc(CN2CC3(CCNC(=O)C3)C2=O)cc1` (racemic) [AA-rac, 2-(4-methoxybenzyl)-2,7-diazaspiro[3.5]nonane-1,6-dione], the EC50 at NMDAR2A and on NMDAR2C was over 100 nM throughout. Besides, the “NMDAR2C A: % maximal [3H]MK-801 binding relative to 1 mM glycine” value at NMDAR2C is “− (−=0)”. The “NMDAR2D: % maximal [3H]MK-801 binding relative to 1 mM glycine” value at NMDAR2D is “+ (<100%=+)”. The compound further registered a CI in “IV pharmacokinetics” of 5.28 mL/min/kg. Besides, the Significance vs. vehicle entry with rats [1] (1 h post-dose) and with rats [1] (24 h post-dose) was “Yes” each time.
As to `COc1ccc(CN2C[C@]3(CCNC(=O)C3)C2=O)cc1` [AA-1, 2-(4-methoxybenzyl)-2,7-diazaspiro[3.5]nonane-1,6-dione], the EC50 at NMDAR2A and on NMDAR2C was over 100 nM each time. On NMDAR2C, the “NMDAR2C A: % maximal [3H]MK-801 binding relative to 1 mM glycine” value was “− (−=0)”. At NMDAR2D, the “NMDAR2D: % maximal [3H]MK-801 binding relative to 1 mM glycine” value was “+ (<100%=+)”. For the same compound, the CI in the data set “IV pharmacokinetics” turned out to be 9.69 mL/min/kg. In addition, the Significance vs. vehicle entry in the data set with rats [1] (1 h post-dose) and in the data set with rats [1] (24 h post-dose) was “Yes” throughout.
Consider `COc1ccc(CN2C[C@@]3(CCNC(=O)C3)C2=O)cc1` [Compound AA-2, 2-(4-methoxybenzyl)-2,7-diazaspiro[3.5]nonane-1,6-dione], for which the half-maximal effective concentration (EC50) on NMDAR2A and at NMDAR2C was over 100 nM each time. Moreover, the “NMDAR2C A: % maximal [3H]MK-801 binding relative to 1 mM glycine” value at NMDAR2C is “− (−=0)”. Besides, the “NMDAR2D: % maximal [3H]MK-801 binding relative to 1 mM glycine” value on NMDAR2D is given as “+ (<100%=+)”. Also, the CI in the data set “IV pharmacokinetics” was determined as 9.82 mL/min/kg. Further, the Significance vs. vehicle entry in the data set with rats [1] (1 h post-dose) and in the data set on rats [1] (24 h post-dose) was “Yes” throughout.
With `NCC1(CC(=O)O)CCCCC1` [gabapentin], the figures for the “% analgesia, control group of the study” value with rats [2] (1 week post-administration), with rats [2] (1 h post-administration) and in the data set with rats [2] (24 h post-administration) were “under 5%”, “at least 50%” and “under 5%”, respectively. In addition, the “% analgesia, example (typical) control values” came out at 0% in the data set on rats [2] (1 wk), 72% with rats [2] (1 h) and 16% with rats [2] (24 h).
